In patent US20230159527A1, “COMPOUNDS AS BCL-2 INHIBITORS” (Fochon Pharmaceuticals, Ltd., priority 2020, published 2023):
pIC50: −log10 of the molar value. Read-outs that look alike come from different tables or passages of the source.

What was measured:
[1] = tested on: Toledo cells; assay: Cell proliferation assay, Toledo cells (MTS, 72 h); assay type: cell-based; conditions: Toledo cells, MTS, read-out: Toledo IC50
Procedure, shortened: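 IC50 was derived from 490 nm absorbance after a 2 h MTS step. Before that, compounds at 1.5–10000 nM final (nine points) acted on Toledo cells for 72 h at 37 °C, 5% CO2. Cells were seeded at 30000/well in 10% FBS RPMI-1640 and rested 4 h before dosing.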

[2] = tested on: RS4;11-BCL-2 G101V cells; assay: Cell proliferation assay, engineered RS4;11 cells stably overexpressing BCL-2 G101V (MTS, 168 h); assay type: cell-based; conditions: read-out: RS4, 11 BCL2- G101V
Procedure: MTS testing kit was purchased from Promega (Madison, Wis., USA). The RPMI-1640, Fetal bovine serum and Penicillin-Streptomycin were purchased from BI (Biological Industries, Beit Haemek, Israel). Puromycin was purchased from Beyotime (shanghai, China). Dimethyl sulfoxide (DMSO) was purchased from Sigma (St. Louis, Mo., USA). RS4;1l-BCL-2 G101V and RS4;11-BCL-2 F104L cells were cultured in RPM11640 supplemented with 1 ug/mL puromycin, 100 U/mL Penicillin-Streptomycin and 10% FBS.
To investigate whether a compound is able to inhibit the activity of BCL-2 mutation in cells, a mechanism-based assay using engineered cell lines stably overexpressing BCL-2 mutation ([…] and […]) was developed. In this assay, the inhibition of BCL-2 mutation was reflected by the inhibition of cell proliferation of RS4;11-BCL-2 G101V and RS4;11-BCL-2 F104L cells. Cells were plated into 96-well plates at optimized cell density (RS4;11-BCL-2 G101V: 5000 cells/well; RS4;11-BCL-2 F104L: 5000 cells/well). Plates were incubated at 37° C., with 5% CO2 for 4 h. Compounds were serially diluted to the final-concentrations of 10000, 3333.3, 1111.1, 370.4, 123.5, 41.2, 13.7, 4.6 and 1.4 nM and added to the plates. Plates were incubated at 37° C., with 5% CO2 for 168 h. 20 μl MTS was added into each well and the plates were incubated at 37° C., with 5% CO2 exactly for 2 h. The absorbance was measured by a microplate reader at 490 nm. IC50 values were calculated using GraphPad Prism 5.0 software.

| pIC50 ([2]; Homo sapiens, RS4-11, 168 h) | pIC50 [2] | Compound | pIC50 ([1]; Homo sapiens) | pIC50 [1] |
| --- | --- | --- | --- | --- |
| 8.40 | – | COCCOc1nc2[nH]ccc2cc1Oc1cc(N2CCC3(CC2)CN([C@H]2CCC[C@H]2c2ccccc2C(C)C)C3)ccc1C(=O)NS(=O)(=O)c1cc2c(c([N+](=O)[O-])c1)N[C@@H]([C@H]1CC[C@](C)(O)CC1)CO2 (racemic) [Example D-75a, N-(((S)-3-((1r,4S)-4-hydroxy-4-methylcyclohexyl)-5-nitro-3,4-dihydro-2H-benzo[b][1,4]oxazin-7-yl)sulfonyl)-4-(2-((1S,2S and 1R,2R)-2-(2-isopropylphenyl)cyclopentyl)-2,7-diazaspiro[3.5]nonan-7-yl)-2-((6-(2-methoxyethoxy)-1H-pyrrolo[2,3-b]pyridin-5-yl)oxy) benzamide] | 9.00 | – |
| – | 9.00 | CC(C)c1ccccc1[C@@H]1CCC[C@@H]1N1CC2(CCN(c3ccc(C(=O)NS(=O)(=O)c4cc5c(c([N+](=O)[O-])c4)N[C@@H]([C@H]4CC[C@](C)(O)CC4)CO5)c(Oc4cnc5[nH]cc(F)c5c4)c3)CC2)C1 (single isomer, unassigned) [Example D-28a, 2-((3-fluoro-1H-pyrrolo[2,3-b]pyridin-5-yl)oxy)-N-(((S)-3-((1r,4S)-4-hydroxy-4-methylcyclohexyl)-5-nitro-3,4-dihydro-2H-benzo[b] [1,4]oxazin-7-yl)sulfonyl)-4-(2-((1S,2S or 1R,2R)-2-(2-isopropylphenyl)cyclopentyl)-2,7-diazaspiro[3.5]nonan-7-yl)benzamide] | – | 9.00 |
| 8.70 | – | CCOc1nc2[nH]ccc2cc1Oc1cc(N2CCC3(CC2)CN([C@H]2CCC[C@H]2c2ccccc2C(C)C)C3)ccc1C(=O)NS(=O)(=O)c1cnc(NC[C@H]2CC[C@](C)(O)CC2)c([N+](=O)[O-])c1 (single isomer, unassigned) [Example A-161, 2-((6-ethoxy-1H-pyrrolo[2,3-b]pyridin-5-yl)oxy)-N-((6-(((1r,4r)-4-hydroxy-4-methylcyclohexyl)methyl)amino)-5-nitropyridin-3-yl)sulfonyl)-4-(2-((1S,2S or 1R,2R)-2-(2-isopropylphenyl)cyclo-pentyl)-2,7-diazaspiro[3.5]nonan-7-yl) benzamide] | 9.00 | – |
| – | 7.74 | CC(C)c1ccccc1[C@@H]1CCC[C@@H]1N1CC2(CCN(c3ccc(C(=O)NS(=O)(=O)c4ccc(NC[C@H]5CC[C@](C)(O)CC5)c([N+](=O)[O-])c4)c(Oc4cnc5[nH]cc(F)c5c4)c3)CC2)C1 (single isomer, unassigned) [Example D-34a, 2-((3-fluoro-1H-pyrrolo[2,3-b]pyridin-5-yl)oxy)-N-((4-((1r,4r)-4-hydroxy-4-methylcyclohexyl)methyl)amino)-3-nitrophenyl) sulfonyl)-4-(2-((1S,2S or 1R,2R)-2-(2-isopropylphenyl)cyclopentyl)-2,7-diazaspiro[3.5]nonan-7-yl)benzamide] | 9.00 | – |
| 7.80 | – | COCCOc1nc2[nH]ccc2cc1Oc1cc(N2CCC3(CC2)CN([C@H]2CCC[C@H]2c2ccccc2C(C)C)C3)ccc1C(=O)NS(=O)(=O)c1cc2c(c([N+](=O)[O-])c1)N[C@@H]([C@H]1CC[C@](C)(O)CC1)CO2 (single isomer, unassigned) [Example D-75b, N-(((S)-3-((1r,4S)-4-hydroxy-4-methylcyclohexyl)-5-nitro-3,4-dihydro-2H-benzo[b][1,4]oxazin-7-yl)sulfonyl)-4-(2-((1S,2S or 1R,2R)-2-(2-isopropylphenyl)cyclopentyl)-2,7-diazaspiro[3.5]nonan-7-yl)-2-((6-(2-methoxyethoxy)-1H-pyrrolo[2,3-b]pyridin-5-yl)oxy) benzamide] | 9.00 | – |
| 7.77 | – | CC(C)c1ccccc1[C@@H]1CCCN1C1CC2(CCN(c3ccc(C(=O)NS(=O)(=O)c4cc5c(c([N+](=O)[O-])c4)N[C@@H]([C@H]4CC[C@](C)(O)CC4)CO5)c(Oc4cc5cc[nH]c5nc4OC4COC4)c3)CC2)C1 (single isomer, unassigned) [Example D-72, N-(((S)-3-((1r,4S)-4-hydroxy-4-methylcyclohexyl)-5-nitro-3,4-dihydro-2H-benzo[b][1,4]oxazin-7-yl)sulfonyl)-4-(2-((R or S)-2-(2-isopropylphenyl)pyrrolidin-1-yl)-7-azaspiro[3.5]nonan-7-yl)-2-((6-(oxetan-3-yloxy)-1H-pyrrolo[2,3-b]pyridin-5-yl)oxy) benzamide] | 9.00 | – |

Continued, compound first:

| Compound | pIC50 ([2]; Homo sapiens, RS4-11, 168 h) | pIC50 [2] | pIC50 ([1]; Homo sapiens) | pIC50 [1] |
| --- | --- | --- | --- | --- |
| CC(C)c1ccccc1[C@@H]1CCC[C@@H]1N1CC2(CCN(c3ccc(C(=O)NS(=O)(=O)c4cc5c(c([N+](=O)[O-])c4)N[C@@H]([C@H]4CC[C@](C)(O)CC4)CO5)c(Oc4cc5c(F)c[nH]c5nc4Cl)c3)CC2)C1 (single isomer, unassigned) [Example D-106, 2-((6-chloro-3-fluoro-1H-pyrrolo [2,3-b]pyridin-5-yl)oxy)-N-(((S)-3-((1r,4S)-4-hydroxy-4-methylcyclohexyl)-5-nitro-3,4-dihydro-2H-benzo[b][1,4]oxazin-7-yl)sulfonyl)-4-(2-((1S,2S or 1R,2R)-2-(2-isopropylphenyl)cyclopentyl)-2,7-diazaspiro[3.5]nonan-7-yl)benzamide] | 7.85 | – | 9.00 | – |
| CNCCOc1nc2[nH]ccc2cc1Oc1cc(N2CCC3(CC2)CC(N2CCC[C@H]2c2ccccc2C(C)C)C3)ccc1C(=O)NS(=O)(=O)c1cc2c(c([N+](=O)[O-])c1)N[C@@H]([C@H]1CC[C@](C)(O)CC1)CO2 (single isomer, unassigned) [Example D-59, N-(((S)-3-((1r,4S)-4-hydroxy-4-methylcyclohexyl)-5-nitro-3,4-dihydro-2H-benzo[b][1,4]oxazin-7-yl)sulfonyl)-4-(2-((R or S)-2-(2-isopropylphenyl)pyrrolidin-1-yl)-7-azaspiro[3.5]nonan-7-yl)-2-((6-(2-(methylamino)ethoxy)-1H-pyrrolo[2,3-b]pyridin-5-yl)oxy)benzamide] | 7.82 | – | 9.00 | – |
| CC(C)c1ccccc1[C@@H]1CCC[C@@H]1N1CC2(CCN(c3ccc(C(=O)NS(=O)(=O)c4cc5c(c([N+](=O)[O-])c4)N[C@@H]([C@H]4CC[C@](C)(O)CC4)CO5)c(Oc4cnc5[nH]cc(F)c5c4)c3)CC2)C1 (single isomer, unassigned) [Example D-28, 2-((3-fluoro-1H-pyrrolo[2,3-b]pyridin-5-yl)oxy)-N-(((S)-3-((1r,4S)-4-hydroxy-4-methylcyclohexyl)-5-nitro-3,4-dihydro-2H-benzo[b] [1,4]oxazin-7-yl)sulfonyl)-4-(2-((1S,2S or 1R,2R)-2-(2-isopropylphenyl)cyclopentyl)-2,7-diazaspiro[3.5]nonan-7-yl)benzamide] | – | 7.89 | 9.00 | – |
| CCOc1nc2[nH]ccc2cc1Oc1cc(N2CCC3(CC2)CN([C@H]2CCC[C@H]2c2ccccc2C(C)C)C3)ccc1C(=O)NS(=O)(=O)c1cc2c(c([N+](=O)[O-])c1)N[C@@H]([C@H]1CC[C@](C)(O)CC1)CO2 (single isomer, unassigned) [Example D-98, 2-((6-ethoxy-1H-pyrrolo[2,3-b]pyridin-5-yl)oxy)-N-((S)-3-((1r,4S)-4-hydroxy-4-methylcyclohexyl)-5-nitro-3,4-dihydro-2H-benzo[b] [1,4]oxazin-7-yl)sulfonyl)-4-(2-((1S,2S or 1R,2R)-2-(2-isopropylphenyl)cyclopentyl)-2,7-diazaspiro[3.5]nonan-7-yl)benzamide] | 9.00 | – | 9.00 | – |
| CC(C)c1ccccc1[C@@H]1CCCN1C1CC2(CCN(c3ccc(C(=O)NS(=O)(=O)c4cc5c(c([N+](=O)[O-])c4)N[C@@H]([C@H]4CC[C@](C)(O)CC4)CO5)c(Oc4cc5cc[nH]c5nc4O[C@H]4CCN(C)C4)c3)CC2)C1 (single isomer, unassigned) [Example D-226, N-(((S)-3-((1r,4S)-4-hydroxy-4-methylcyclohexyl)-5-nitro-3,4-dihydro-2H-benzo[b][1,4]oxazin-7-yl)sulfonyl)-4-(2-((R or S)-2-(2-isopropylphenyl)pyrrolidin-1-yl)-7-azaspiro[3.5]nonan-7-yl)-2-((6-(((5)-1-methylpyrrolidin-3-yl)oxy)-1H-pyrrolo[2,3-b]pyridin-5-yl)oxy)benzamide] | 7.89 | – | 9.00 | – |
| CC(C)c1ccccc1[C@@H]1CN(C(=O)C2CC2)CCN1C1CC2(CCN(c3ccc(C(=O)NS(=O)(=O)c4cc5c(c([N+](=O)[O-])c4)N[C@@H]([C@H]4CC[C@](C)(O)CC4)CO5)c(Oc4cnc5[nH]cc(F)c5c4)c3)CC2)C1 (single isomer, unassigned) [Example D-82, 4-(2-((R or S)-4-(cyclopropanecarbonyl)-2-(2-isopropylphenyl)piperazin-1-yl)-7-azaspiro[3.5]nonan-7-yl)-2-((3-fluoro-1H-pyrrolo[2,3-b]pyridin-5-yl)oxy)-N-(((S)-3-((1r,4S)-4-hydroxy-4-methylcyclohexyl)-5-nitro-3,4-dihydro-2H-benzo[b][1,4]oxazin-7-yl)sulfonyl)benzamide] | 7.72 | – | 9.00 | – |
